Patent publication US9233946B2, “Sulfonamide compounds” (KANCERA AB, priority 2010, dated 2016)

Molecular target: PFKFB3 (Homo sapiens (Human), UniProt Q16875)
Assay: PFKFB3 kinase activity, Method A (F-2,6-P2 production, coupled PPi-PFK/NADH assay)
Assay type: biochemical
From the text: The PFKFB3 (placenta form) and PFKFB4 were produced and purified to homogeneity from E. coli at Biovitrum and at Sprint Bioscience. All other reagents were purchased from commercial sources. Two independent methods have been used for determination of the kinase activity of PFKFB3 (Method A and Method B). Method B has been used for determination of the kinase activity of PFKFB4.
Method A: The kinase activity of the bi-functional enzyme is readily quantified based on the production of F-2,6-P2 as described by Van Schaftingen et al. (1982) Eur. J. Biochem. 129, 191-5. This sensitive assay is based on the potent activation of pyrophosphate dependent phosphofructokinase-1 (PPi-PFK) from potato tubers by F-2,6-P2. The use of a series of coupled enzymes leads to a consumption of NADH (nicotinamide adenine dinucleotide) that can be followed spectrophotometrically (an updated protocol is available in Van Schaftingen, (1984) Methods of Enzymatic Analysis (Bergmeyer, H. U., ed.), 3rd edn., vol. 6, pp. 335-341, Verlag Chemie, Weinheim). A protocol for measurements in 96-well microtiter plate format is also available (Bruni et al., (1989) Anal. Biochem. 178, 324-6). These assay protocols have been adopted for the measurement of the kinase activity of PFKFB3 with some modifications as described in the protocol below.
The assay was run in 96-well microtiter plates (Costar 3365 round bottom polypropylene) by consecutive additions of 30 μl each of a test compound solution (diluted from a DMSO stock solution), a PFKFB3 solution and a substrate (fructose-6-phosphate (F6P) and adenosine-5′-triphosphate (ATP)) containing solution. […] The final concentrations of all reagents in a total assay volume of 90 μl per well were: • 50 mM Tris-acetate at pH 8.0 • 0.1 mM EDTA (ethylene diamine tetraacetic acid) • 10 mM MgCl2 • 5 mM Na2HPO4 (buffered by the Tris-acetate to a final pH of 8.0) • 5 nM PFKFB3 • 4 μM ATP • 100 μM F6P (acid treated and then neutralized to remove any contaminating F-2,6-P2; see Van Schaftingen, 1984) • 1 mM dithiothreitol (DTT) • 0.005% Tween-20
A test compound at various concentrations (which also added 0.83% DMSO to the final solution)
The enzymatic reaction was allowed to proceed for 10 minutes at room temperature while on a plate shaker at medium speed (750 RPM). The reaction was then terminated by the addition of 90 μl of a 0.4 M NaOH solution to all wells. The plate was then placed on the plateshaker at the same speed for two minutes to allow sufficient mixing. All samples were then diluted by a factor of 10 by transferring 20 μl from each well to the corresponding well of a new plate with 180 μl distilled water predispensed to all wells.
The next step in the protocol was quantification of the levels of F-2,6-P2 in each well of the microtiter plate. This was done by transferring 20 μl of the content in each well to the corresponding position in a new plate (Nunc 269620 transparent 96-well plate). […] To ensure that all measured values were within the linear range of the response (measured to be between 0-1 nM of F-2,6-P2 as also described by Van Schaftingen) the same volume of a 2.5 nM and a 5.0 nM standard sample were also added to column 12 (as all samples were diluted five-fold in the assay procedure this corresponds to 0.5 and 1.0 nM samples). The procedure then involved consecutive additions of three solutions with the following premixed components: • Assay-mix (20 μl): Tris-acetate at pH 8.0, NADH and Mg(OAc)2 • PPi/F6P-mix (40 μl): Pyrophosphate and F6P • Enzyme-mix (20 μl): Tris-acetate at pH 8.0, aldolase, triose phosphate isomerase, glycerol-3-phosphate dehydrogenase, pyrophosphate-dependent phosphofructokinase from potato tubers and bovine serum albumin (BSA) […]

Sequence of PFKFB3 (Q16875 whole entry): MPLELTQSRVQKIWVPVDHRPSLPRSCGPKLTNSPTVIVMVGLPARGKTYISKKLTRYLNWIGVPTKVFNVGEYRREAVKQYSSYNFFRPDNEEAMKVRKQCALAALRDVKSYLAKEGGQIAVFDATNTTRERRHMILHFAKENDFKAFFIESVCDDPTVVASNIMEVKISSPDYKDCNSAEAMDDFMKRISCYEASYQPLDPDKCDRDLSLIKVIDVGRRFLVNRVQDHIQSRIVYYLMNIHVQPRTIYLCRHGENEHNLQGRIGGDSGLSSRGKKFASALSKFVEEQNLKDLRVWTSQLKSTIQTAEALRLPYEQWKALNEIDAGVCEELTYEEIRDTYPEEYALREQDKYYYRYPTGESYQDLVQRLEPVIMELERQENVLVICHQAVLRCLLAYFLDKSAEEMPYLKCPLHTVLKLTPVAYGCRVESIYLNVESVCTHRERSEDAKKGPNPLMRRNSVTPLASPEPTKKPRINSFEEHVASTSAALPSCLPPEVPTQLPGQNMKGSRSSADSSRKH

Row | Structure (SMILES) | IC50
1 | Cc1c(S(=O)(=O)Nc2cc(C(=O)O)cc([N+](=O)[O-])c2)sc2ccc(C(C)C)cc12 [Example 11, 3-{[(5-Isopropyl-3-methyl-1-benzothien-2-yl)sulfonyl]amino}-5-nitrobenzoic acid] | 850 nM
2 | O=S(=O)(Nc1cccc(-c2nnn[nH]2)c1)c1ccc(-c2cnco2)s1 [Example 2, 5-(1,3-Oxazol-5-yl)-N-[3-(1H-tetrazol-5-yl)phenyl]thiophene-2-sulfonamide] | 3910 nM
3 | Cc1nc(-c2ccc(S(=O)(=O)Nc3cccc(-c4nnn[nH]4)c3)s2)cs1 [Example 25, 5-(2-Methyl-1,3-thiazol-4-yl)-N-[3-(1H-tetrazol-5-yl)phenyl]thiophene-2-sulfonamide] | 310 nM
4 | Cc1c(S(=O)(=O)Nc2cccc(-c3nnn[nH]3)c2)sc2ccc(N)cc12 [Example 48, 5-Amino-3-methyl-N-[3-(1H-tetrazol-5-yl)phenyl]-1-benzothiophene-2-sulfonamide] | 360 nM
5 | O=S(=O)(Nc1cccc(-c2nnn[nH]2)c1)c1ccc2ccccc2c1 [Example 20, N-[3-(1H-Tetrazol-5-yl)phenyl]naphthalene-2-sulfonamide] | 850 nM
6 | O=S(=O)(Nc1cccc(-c2nnn[nH]2)c1)c1cccc(-c2ccc(F)cc2)c1 [Example 17, 4′-Fluoro-N-[3-(1H-tetrazol-5-yl)phenyl]biphenyl-3-sulfonamide] | 450 nM
7 | Cc1c(S(=O)(=O)Nc2cccc(CC(=O)O)c2)sc2ccc(C(C)C)cc12 [Example 15, (3-{[(5-Isopropyl-3-methyl-1-benzothien-2-yl)sulfonyl]amino}phenyl)acetic acid] | 230 nM
8 | O=S(=O)(Nc1cccc(-c2nnn[nH]2)c1)c1ccc(-c2ccccc2)cc1 [Example 31, N-[3-(1H-Tetrazol-5-yl)phenyl]biphenyl-4-sulfonamide] | 1390 nM
9 | Cc1c(S(=O)(=O)Nc2cccc(-c3nnn[nH]3)c2)oc2ccc(C(C)C)cc12 [Example 13, 5-Isopropyl-3-methyl-N-[3-(1H-tetrazol-5-yl)phenyl]-1-benzofuran-2-sulfonamide] | 80 nM
10 | Cc1c(S(=O)(=O)Nc2cccc(C(=O)O)n2)sc2ccc(C(C)C)cc12 [Example 10, 6-{[(5-Isopropyl-3-methyl-1-benzothien-2-yl)sulfonyl]amino}pyridine-2-carboxylic acid] | 810 nM
11 | Cc1c(S(=O)(=O)Nc2cncc(C(=O)O)c2)sc2ccc(C(C)C)cc12 [Example 9, 5-{[(5-Isopropyl-3-methyl-1-benzothien-2-yl)sulfonyl]amino}nicotinic acid] | 730 nM
12 | Cc1c(S(=O)(=O)Nc2cccc(-c3nnn(CC(=O)O)n3)c2)sc2ccc(C(C)C)cc12 [Example 12, [5-(3-{[(5-Isopropyl-3-methyl-1-benzothien-2-yl)sulfonyl]amino}phenyl)-2H-tetrazol-2-yl]acetic acid] | 1020 nM
13 | Cc1nc(NS(=O)(=O)c2sc3ccc(C(C)C)cc3c2C)sc1C(=O)O [Example 8, 2-{[(5-Isopropyl-3-methyl-1-benzothien-2-yl)sulfonyl]amino}-4-methyl-1,3-thiazole-5-carboxylic acid] | 610 nM
14 | Cc1c(S(=O)(=O)Nc2cccc(C(=O)O)c2)oc2ccc(C(C)C)cc12 [Example 14, 3-{[(5-Isopropyl-3-methyl-1-benzofuran-2-yl)sulfonyl]amino}benzoic acid] | 280 nM
15 | COc1ccc(-c2cccc(S(=O)(=O)Nc3cccc(-c4nnn[nH]4)c3)c2)cc1 [Example 19, 4′-Methoxy-N-[3-(1H-tetrazol-5-yl)phenyl]biphenyl-3-sulfonamide] | 720 nM
16 | O=S(=O)(Nc1cccc(-c2nnn[nH]2)c1)c1ccc(Cl)c(Cl)c1Cl [Example 1, 2,3,4-Trichloro-N-[3-(1H-tetrazol-5-yl)phenyl]benzenesulfonamide] | 280 nM

Other lines, results leading:

Row | IC50 | Structure (SMILES)
17 | 6690 nM | O=C(O)c1cccc(NS(=O)(=O)c2ccc(-c3ccccn3)s2)c1 [Example 78, 3-{[(5-Pyridin-2-yl-2-thienyl)sulfonyl]amino}benzoic acid]
18 | 1120 nM | O=S(=O)(Nc1cccc(-c2nnn[nH]2)c1)c1ccc(Br)cc1C(F)(F)F [Example 56, 4-Bromo-N-[3-(1H-tetrazol-5-yl)phenyl]-2-(trifluoromethyl)benzenesulfonamide]
19 | 6310 nM | O=C(O)c1cccc(NS(=O)(=O)c2ccc(-c3ccon3)s2)c1 [Example 79, 3-{[(5-Isoxazol-3-yl-2-thienyl)sulfonyl]amino}benzoic acid]
20 | 540 nM | NC(=O)c1cccc(-c2ccc(S(=O)(=O)Nc3cccc(-c4nnn[nH]4)c3)s2)c1 [Example 58, 3-[5-[[3-(1H-Tetrazol-5-yl)phenyl]sulfamoyl]-2-thienyl]benzamide]
21 | 5070 nM | CC(=O)Nc1ccc2sc(S(=O)(=O)Nc3cccc(C(=O)O)c3)c(C)c2c1 [Example 49, 3-({[5-(Acetylamino)-3-methyl-1-benzothien-2-yl]sulfonyl}amino)benzoic acid]
22 | 8450 nM | O=S(=O)(Nc1cccc(-c2nnn[nH]2)c1)c1ccc(-c2cnco2)cc1 [Example 83, 4-(1,3-Oxazol-5-yl)-N-[3-(1H-tetrazol-5-yl)phenyl]benzenesulfonamide]
23 | 2540 nM | O=S(=O)(Nc1cccc(-c2nnn[nH]2)c1)c1cccc(-c2cc(Cl)cc(Cl)c2)c1 [Example 52, 3-(3,5-Dichlorophenyl)-N-[3-(1-H-tetrazol-5-yl)phenyl]benzenesulfonamide]
24 | 5750 nM | O=S(=O)(Nc1cccc(-c2nnn[nH]2)c1)c1cccc(-c2ccc(C(F)(F)F)cc2)c1 [Example 55, N-[3-(1H-Tetrazol-5-yl)phenyl]-3-[4-(trifluoromethyl)phenyl]benzenesulfonamide]
25 | 1780 nM | Cc1cc(Cl)cc(Cl)c1S(=O)(=O)Nc1cccc(-c2nnn[nH]2)c1 [Example 53, 2,4-Dichloro-6-methyl-N-[3-(1H-tetrazol-5-yl)phenyl]benzenesulfonamide]
26 | 560 nM | O=S(=O)(Nc1cccc(-c2nnn[nH]2)c1)c1ccc(-c2nsc(Cl)n2)s1 [Example 59, 5-(5-Chloro-1,2,4-thiadiazol-3-yl)-N-[3-(1H-tetrazol-5-yl)phenyl]thiophene-2-sulfonamide]
27 | 9840 nM | O=S(=O)(Nc1cccc(-c2nnn[nH]2)c1)c1ccc(F)cc1Cl [Example 81, 2-Chloro-4-fluoro-N-[3-(1H-tetrazol-5-yl)phenyl]benzenesulfonamide]
